The values below are quoted from earlier work in patent US8222453B2, “Benzamide factor VIIa inhibitors useful as anticoagulants” (Bristol-Myers Squibb Company, priority 2006, dated 2012).

One data set deals with deep vein thrombosis. Particulars: patients undergoing total knee replacement.
In data set [1] the test system is systemic thrombin generation. The following applies: patients undergoing coronary angioplasty.

Consider “recombinant nematode anticoagulant protein c2 [rNAPc2]”, for which, in the data set on deep vein thrombosis, the deep vein thrombosis entry was “prevents deep vein thrombosis”. Further, the systemic thrombin generation result in data set [1] is reported as “reduces systemic thrombin generation”.
